The source of these data is US10745382B2 (BRISTOL-MYERS SQUIBB COMPANY, priority 2015, dated 2020).

Structures are written as SMILES.

T1 sequence (Q9NZQ7 with tags, fused parts or gaps): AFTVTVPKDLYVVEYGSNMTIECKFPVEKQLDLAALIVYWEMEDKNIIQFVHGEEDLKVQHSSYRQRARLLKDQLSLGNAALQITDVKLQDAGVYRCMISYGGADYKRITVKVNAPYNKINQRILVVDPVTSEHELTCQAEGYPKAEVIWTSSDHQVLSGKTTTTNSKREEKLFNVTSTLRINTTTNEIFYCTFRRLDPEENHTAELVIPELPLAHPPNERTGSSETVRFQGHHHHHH

This assay addresses T1, PD-1/PD-L1 (Homo sapiens, UniProt Q9NZQ7).
T1 construct: made in house; host or cells: HEK293T
The assay is described as follows: PD-1/PD-L1 Homogenous Time-Resolved Fluorescence (HTRF) binding assay. Particulars: PD-L1-His 10 nM, PD-1-Ig 20 nM; value given as range class; read-out: Range or IC50. The method, boiled down: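 Additional pairs run were PD-1-Ig with PD-L2-His (20 & 5 nM) and CD80-His with PD-L1-Ig (100 & 10 nM), all human proteins. Buffer: dPBS plus 0.1% BSA, 0.05% Tween-20; time-resolved FRET read-out via 1 nM Eu-cryptate anti-Ig and 20 nM APC anti-His, final concentrations.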
Consider `Cc1c(COc2cc(OCc3cncc(C#N)c3)c(CNC(CO)CO)cc2Cl)cccc1-c1cccc(Nc2cc(N3CCOCC3)ncn2)c1C` [Example 2350, 5-((4-chloro-2-(((1,3-dihydroxypropan-2-yl)amino)methyl)-5-((2,2′-dimethyl-3′-((6-morpholinopyrimidin-4-yl)amino)-[1,1′-biphenyl]-3-yl)methoxy)phenoxy)methyl)nicotinonitrile], for which the IC50 lay in the range of 0.21 to 10 nM. Next, `Cc1c(COc2cc(OCc3cncc(C#N)c3)c(CNC(CO)CO)cc2Cl)cccc1-c1cccc(Oc2cccc3c2CCNC3=O)c1C` [Example 2354, 5-((4-chloro-2-(((1,3-dihydroxypropan-2-yl)amino)methyl)-5-((2,2′-dimethyl-3′-((1-oxo-1,2,3,4-tetrahydroisoquinolin-5-yl)oxy)-[1,1′-biphenyl]-3-yl)methoxy)phenoxy)methyl)nicotinonitrile]: 10 to 100 nM. For `Cc1c(COc2cc(OCc3cncc(C#N)c3)c(CN3CCCC[C@H]3C(=O)O)cc2Cl)cccc1-c1cccc(OCCCN2CCC(C(=O)O)CC2)c1C` [Example 2364, (S)-1-(4-((3′-(3-(4-carboxypiperidin-1-yl)propoxy)-2,2′-dimethyl-[1,1′-biphenyl]-3-yl)methoxy)-5-chloro-2-((5-cyanopyridin-3-yl)methoxy)benzyl)piperidine-2-carboxylic Acid], the IC50 was 0.21 to 10 nM. Take `Cc1c(COc2cc(OCc3cncc(C#N)c3)c(CN3CCCC[C@H]3C(=O)Oc3ccc([N+](=O)[O-])cc3)cc2Cl)cccc1-c1cccc(OCCCN2CC[C@@H](O)C2)c1C` [Example 2370, 4-nitrophenyl (S)-1-(5-chloro-2-((5-cyanopyridin-3-yl)methoxy)-4-((3′-(3-((R)-3-hydroxypyrrolidin-1-yl)propoxy)-2,2′-dimethyl-[1,1′-biphenyl]-3-yl)methoxy)benzyl)piperidine-2-carboxylate]: the IC50 lay in the range of 10 to 100 nM. Next, `Cc1c(COc2cc(OCc3cncc(C#N)c3)c(C(=O)NC(C)(CO)CO)cc2Cl)cccc1-c1cccc(OCCCN2CC[C@@H](O)C2)c1C` [Example 2378, (R)-5-chloro-2-((5-cyanopyridin-3-yl)methoxy)-N-(1,3-dihydroxy-2-methylpropan-2-yl)-4-((3′-(3-(3-hydroxypyrrolidin-1-yl)propoxy)-2,2′-dimethyl-[1,1′-biphenyl]-3-yl)methoxy)benzamide]: 0.21 to 10 nM.

As to `Cc1c(COc2cc(OCc3cncc(C#N)c3)c(C(=O)NCCO)cc2Cl)cccc1-c1cccc(OCCCN2CC[C@@H](O)C2)c1C` [Example 2379, (R)-5-chloro-2-((5-cyanopyridin-3-yl)methoxy)-N-(2-hydroxyethyl)-4-((3′-(3-(3-hydroxypyrrolidin-1-yl)propoxy)-2,2′-dimethyl-[1,1′-biphenyl]-3-yl)methoxy)benzamide], the concentration for half-maximal inhibition (IC50) was in the range of 0.21 to 10 nM. Next, `Cc1c(COc2cc(OCc3cncc(C#N)c3)c(C(=O)N3CCCC[C@H]3C(=O)O)cc2Cl)cccc1-c1cccc(OCCCN2CC[C@@H](O)C2)c1C` [Example 2380, (S)-1-(5-chloro-2-((5-cyanopyridin-3-yl)methoxy)-4-((3′-(3-((R)-3-hydroxypyrrolidin-1-yl)propoxy)-2,2′-dimethyl-[1,1′-biphenyl]-3-yl)methoxy)benzoyl)piperidine-2-carboxylic Acid]: 10 to 100 nM. Next, `Cc1c(COc2cc(OCc3cncc(C#N)c3)c(C=O)cc2Cl)cccc1-c1cccc(OCCCN2CCC(O)(C(=O)O)CC2)c1C` [Example 2385, 1-(3-((3′-((2-chloro-5-((5-cyanopyridin-3-yl)methoxy)-4-formylphenoxy)methyl)-2,2′-dimethyl-[1,1′-biphenyl]-3-yl)oxy)propyl)-4-hydroxypiperidine-4-carboxylic Acid]: 0.21 to 10 nM; `Cc1c(OCCCN2CC[C@@H](O)C2)cccc1-c1cccc(COc2cc(OCc3cncc(C#N)c3)c(CN[C@](C)(CO)C(=O)O)cc2Cl)c1` [Example 3015]: 0.21 to 10 nM.
